{"source": "patent US20210128584A1", "about": "“USE OF GLUCOCORTICOID RECEPTOR ANTAGONISTS FOR THE TREATMENT OF AMYOTROPHIC LATERAL SCLEROSIS” (Corcept Therapeutics Incorporated, priority 2008, published 2021)", "origin": "cited, not measured here", "data": [{"smiles": "CC#C[C@]1(O)CC[C@H]2[C@@H]3CCC4=CC(=O)CCC4=C3[C@@H](c3ccc(N(C)C)cc3)C[C@@]21C", "note": "[Mifepristone, 17β-hydroxy-11β-(4-dimethyl-aminophenyl)-17α-(1-propynyl)-estra-4,9-dien-3-one]", "values": [{"measurement": "fraction of the daily dose excreted in the urine", "result": "less than 0.5%"}]}]}
